Experimental data as given in ChEMBL document CHEMBL4507311, “Data for DCP probe A-1155463” (2021).

How the values were obtained:
[1] = molecular target: Angiotensin-converting enzyme (Homo sapiens) (UniProt P12821); assay: ACE (h) Eurofins-Cerep enzyme and uptake assay; settings: Compound concentration 10.0 uM
[2] = molecular target: Adenosine receptor A2b (Homo sapiens) (UniProt P29275); assay: A2B (h) Eurofins-Cerep binding assay; set-up: ligand concentration 5 nM; settings: filed as antagonist, Compound concentration 10.0 uM
[3] = molecular target: Adenosine receptor A3 (Homo sapiens) (UniProt P0DMS8); assay: A3 (h) Eurofins-Cerep binding assay; set-up: ligand concentration 0.15 nM; settings: filed as agonist, Compound concentration 10.0 uM
[4] = molecular target: T1, Alpha-2B adrenergic receptor (Homo sapiens) (UniProt P18089); assay: Alpha2B (h) Eurofins-Cerep binding assay; set-up: ligand concentration 2.5 nM; settings: filed as antagonist, Compound concentration 10.0 uM
T1 sequence (whole entry): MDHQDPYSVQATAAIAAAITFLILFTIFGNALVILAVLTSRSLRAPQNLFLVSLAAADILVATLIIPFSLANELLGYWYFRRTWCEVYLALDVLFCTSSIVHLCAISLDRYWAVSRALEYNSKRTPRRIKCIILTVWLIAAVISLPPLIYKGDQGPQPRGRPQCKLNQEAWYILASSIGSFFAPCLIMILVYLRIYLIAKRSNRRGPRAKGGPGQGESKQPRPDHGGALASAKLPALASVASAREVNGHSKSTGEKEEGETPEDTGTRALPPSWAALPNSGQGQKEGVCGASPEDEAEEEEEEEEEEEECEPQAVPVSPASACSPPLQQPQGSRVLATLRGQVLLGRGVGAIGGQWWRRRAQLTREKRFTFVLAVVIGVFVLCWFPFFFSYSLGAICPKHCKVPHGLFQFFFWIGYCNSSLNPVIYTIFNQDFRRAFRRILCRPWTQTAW

[5] = molecular target: Type-1 angiotensin II receptor (Homo sapiens) (UniProt P30556); assay: AT1 (h) Eurofins-Cerep binding assay; set-up: ligand concentration 0.05 nM; settings: filed as antagonist, Compound concentration 10.0 uM
[6] = molecular target: T2, GABA-A receptor; anion channel (Rattus norvegicus) (UniProt O09028+P15431+P18506+P18508+P19969+P20236+P23574+P23576+P28471+P28473+P30191+P62813+P63079+P63138+Q91ZM7+Q9ES14); assay: BZD (central) Eurofins-Cerep binding assay; format: protein-complex assay; set-up: ligand concentration 0.4 nM; settings: filed as agonist, Compound concentration 10.0 uM
[7] = molecular target: B2 bradykinin receptor (Homo sapiens) (UniProt P30411); assay: B2 (h) Eurofins-Cerep binding assay; set-up: ligand concentration 0.3 nM; settings: filed as agonist, Compound concentration 10.0 uM
[8] = molecular target: D(1A) dopamine receptor (Homo sapiens) (UniProt P21728); assay: D1 (h) Eurofins-Cerep binding assay; set-up: ligand concentration 0.3 nM; settings: filed as antagonist, Compound concentration 10.0 uM
[9] = molecular target: Endothelin receptor type B (Homo sapiens) (UniProt P24530); assay: ETB (h) Eurofins-Cerep binding assay; set-up: ligand concentration 0.03 nM; settings: filed as agonist, Compound concentration 10.0 uM
Sequence of Endothelin receptor type B (Homo sapiens) (P24530 whole entry): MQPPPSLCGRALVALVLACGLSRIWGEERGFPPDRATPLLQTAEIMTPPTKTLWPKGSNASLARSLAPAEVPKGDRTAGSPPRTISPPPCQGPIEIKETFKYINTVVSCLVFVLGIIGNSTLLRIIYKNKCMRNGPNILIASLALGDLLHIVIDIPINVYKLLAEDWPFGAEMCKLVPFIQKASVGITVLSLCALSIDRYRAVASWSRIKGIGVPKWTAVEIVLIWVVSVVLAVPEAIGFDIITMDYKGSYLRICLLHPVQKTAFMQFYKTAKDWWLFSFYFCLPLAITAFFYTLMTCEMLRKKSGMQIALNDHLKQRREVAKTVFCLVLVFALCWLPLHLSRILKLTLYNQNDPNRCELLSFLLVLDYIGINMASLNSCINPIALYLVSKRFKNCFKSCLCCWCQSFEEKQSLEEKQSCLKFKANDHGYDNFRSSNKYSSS

[10] = molecular target: Histamine H1 receptor (Homo sapiens) (UniProt P35367); assay: H1 (h) Eurofins-Cerep binding assay; set-up: ligand concentration 1 nM; settings: filed as antagonist, Compound concentration 10.0 uM
[11] = molecular target: Histamine H2 receptor (Homo sapiens) (UniProt P25021); assay: H2 (h) Eurofins-Cerep binding assay; set-up: ligand concentration 0.075 nM; settings: filed as antagonist, Compound concentration 10.0 uM
[12] = molecular target: MAO-A (amine oxidase [flavin-containing] A) (Rattus norvegicus, UniProt P21396); assay: MAO-A Eurofins-Cerep binding assay; set-up: incubation time 60 min, incubation temperature 37°C, ligand concentration 10 nM; settings: rat cerebral cortex, probe [3H]Ro 41-1049 (10 nM), compound concentration 10 uM, read-out: % Inhibition of Control Specific Binding (Mean n=2)
[13] = molecular target: Muscarinic acetylcholine receptor M1 (Homo sapiens) (UniProt P11229); assay: M1 (h) Eurofins-Cerep binding assay; set-up: ligand concentration 2 nM; settings: filed as antagonist, Compound concentration 10.0 uM
[14] = molecular target: Muscarinic acetylcholine receptor M3 (Homo sapiens) (UniProt P20309); assay: M3 (h) Eurofins-Cerep binding assay; set-up: ligand concentration 0.2 nM; settings: filed as antagonist, Compound concentration 10.0 uM
[15] = molecular target: T3, Muscarinic acetylcholine receptor M5 (Homo sapiens) (UniProt P08912); assay: M5 (h) Eurofins-Cerep binding assay; set-up: ligand concentration 0.3 nM; settings: filed as antagonist, Compound concentration 10.0 uM
T3 sequence (whole entry): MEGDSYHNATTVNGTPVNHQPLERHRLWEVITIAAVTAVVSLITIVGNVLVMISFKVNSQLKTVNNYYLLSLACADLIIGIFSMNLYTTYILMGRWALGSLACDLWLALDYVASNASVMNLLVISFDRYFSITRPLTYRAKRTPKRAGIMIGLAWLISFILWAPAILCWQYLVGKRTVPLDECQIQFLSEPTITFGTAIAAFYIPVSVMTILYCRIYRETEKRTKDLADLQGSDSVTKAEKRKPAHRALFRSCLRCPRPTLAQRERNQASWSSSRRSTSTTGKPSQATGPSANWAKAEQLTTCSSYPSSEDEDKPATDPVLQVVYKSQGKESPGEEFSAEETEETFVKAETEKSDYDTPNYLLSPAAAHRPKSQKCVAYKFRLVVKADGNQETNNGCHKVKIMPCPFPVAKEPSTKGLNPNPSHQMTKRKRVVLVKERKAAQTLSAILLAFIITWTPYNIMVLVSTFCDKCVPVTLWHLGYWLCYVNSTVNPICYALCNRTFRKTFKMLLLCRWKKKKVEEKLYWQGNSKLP

[16] = molecular target: Peroxisome proliferator-activated receptor gamma (Homo sapiens) (UniProt P37231); assay: PPARgamma (h) Eurofins-Cerep binding assay; set-up: ligand concentration 5 nM; settings: filed as agonist, Compound concentration 10.0 uM
[17] = molecular target: Glutamate NMDA receptor (Rattus norvegicus) (UniProt P35439+Q00959+Q00960+Q00961+Q62645+Q8VHN2+Q9R1M7); assay: PCP Eurofins-Cerep binding assay; format: protein-complex assay; set-up: ligand concentration 10 nM; settings: filed as antagonist, Compound concentration 10.0 uM
[18] = molecular target: P2X receptor (Rattus norvegicus) (UniProt P51579+P49653+P51578+Q64663+P47824+P51577+P49654); assay: P2X Eurofins-Cerep binding assay; format: protein assay; set-up: ligand concentration 3 nM; settings: filed as agonist, Compound concentration 10.0 uM
[19] = molecular target: T4, 5-hydroxytryptamine receptor 3A (Homo sapiens) (UniProt P46098); assay: 5-HT3 (h) Eurofins-Cerep binding assay; set-up: ligand concentration 0.5 nM; settings: filed as antagonist, Compound concentration 10.0 uM
T4 sequence (whole entry): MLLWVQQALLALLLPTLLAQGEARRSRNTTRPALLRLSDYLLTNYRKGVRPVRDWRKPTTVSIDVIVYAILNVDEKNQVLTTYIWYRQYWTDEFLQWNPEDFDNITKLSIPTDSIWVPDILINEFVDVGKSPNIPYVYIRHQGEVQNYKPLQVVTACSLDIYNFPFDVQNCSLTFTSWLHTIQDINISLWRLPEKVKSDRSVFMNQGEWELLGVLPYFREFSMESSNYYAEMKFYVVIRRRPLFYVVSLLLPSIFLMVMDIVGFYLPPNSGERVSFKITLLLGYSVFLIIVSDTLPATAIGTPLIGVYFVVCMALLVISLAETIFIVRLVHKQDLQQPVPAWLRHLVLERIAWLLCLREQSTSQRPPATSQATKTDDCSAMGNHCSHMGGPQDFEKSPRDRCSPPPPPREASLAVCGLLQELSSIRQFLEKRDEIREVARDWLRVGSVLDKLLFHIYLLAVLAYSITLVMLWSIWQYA

[20] = molecular target: Androgen receptor (Homo sapiens) (UniProt P10275); assay: AR (h) Eurofins-Cerep binding assay; set-up: ligand concentration 1 nM; settings: filed as agonist, Compound concentration 10.0 uM
[21] = molecular target: Urotensin-2 receptor (Homo sapiens) (UniProt Q9UKP6); assay: UT (h) Eurofins-Cerep binding assay; set-up: ligand concentration 0.1 nM; settings: filed as agonist, Compound concentration 10.0 uM
Sequence of Urotensin-2 receptor (Homo sapiens) (Q9UKP6 whole entry): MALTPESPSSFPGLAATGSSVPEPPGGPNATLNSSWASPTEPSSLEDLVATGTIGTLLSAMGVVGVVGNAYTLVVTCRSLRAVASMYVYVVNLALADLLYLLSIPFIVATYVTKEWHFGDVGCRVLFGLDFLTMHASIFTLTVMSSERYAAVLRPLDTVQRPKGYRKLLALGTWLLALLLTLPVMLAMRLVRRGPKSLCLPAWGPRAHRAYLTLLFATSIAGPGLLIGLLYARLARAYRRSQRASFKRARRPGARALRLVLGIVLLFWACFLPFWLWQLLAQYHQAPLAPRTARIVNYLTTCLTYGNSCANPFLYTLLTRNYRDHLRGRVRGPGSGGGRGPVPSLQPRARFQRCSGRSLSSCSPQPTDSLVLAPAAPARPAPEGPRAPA

[22] = molecular target: Sulfonylurea receptors; K-ATP channels (Rattus norvegicus) (UniProt Q63563+P70673+Q63664+Q09429); assay: KATP channel Eurofins-Cerep binding assay; format: protein-complex assay; set-up: ligand concentration 0.1 nM; settings: filed as antagonist, Compound concentration 10.0 uM
Sequence of Sulfonylurea receptors; K-ATP channels (Rattus norvegicus) (P70673 whole entry, looked up): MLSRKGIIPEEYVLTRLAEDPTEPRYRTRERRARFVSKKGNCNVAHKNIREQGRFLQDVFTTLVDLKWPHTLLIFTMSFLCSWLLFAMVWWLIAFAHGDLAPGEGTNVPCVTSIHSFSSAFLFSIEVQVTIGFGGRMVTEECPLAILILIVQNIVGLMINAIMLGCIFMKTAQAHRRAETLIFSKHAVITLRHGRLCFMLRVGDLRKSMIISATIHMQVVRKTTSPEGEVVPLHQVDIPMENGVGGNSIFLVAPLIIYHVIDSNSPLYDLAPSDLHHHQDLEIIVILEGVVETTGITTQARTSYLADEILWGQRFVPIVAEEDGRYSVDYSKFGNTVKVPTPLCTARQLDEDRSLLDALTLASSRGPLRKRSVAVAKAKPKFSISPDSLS
Sequence of Sulfonylurea receptors; K-ATP channels (Rattus norvegicus) (Q09429 whole entry, looked up): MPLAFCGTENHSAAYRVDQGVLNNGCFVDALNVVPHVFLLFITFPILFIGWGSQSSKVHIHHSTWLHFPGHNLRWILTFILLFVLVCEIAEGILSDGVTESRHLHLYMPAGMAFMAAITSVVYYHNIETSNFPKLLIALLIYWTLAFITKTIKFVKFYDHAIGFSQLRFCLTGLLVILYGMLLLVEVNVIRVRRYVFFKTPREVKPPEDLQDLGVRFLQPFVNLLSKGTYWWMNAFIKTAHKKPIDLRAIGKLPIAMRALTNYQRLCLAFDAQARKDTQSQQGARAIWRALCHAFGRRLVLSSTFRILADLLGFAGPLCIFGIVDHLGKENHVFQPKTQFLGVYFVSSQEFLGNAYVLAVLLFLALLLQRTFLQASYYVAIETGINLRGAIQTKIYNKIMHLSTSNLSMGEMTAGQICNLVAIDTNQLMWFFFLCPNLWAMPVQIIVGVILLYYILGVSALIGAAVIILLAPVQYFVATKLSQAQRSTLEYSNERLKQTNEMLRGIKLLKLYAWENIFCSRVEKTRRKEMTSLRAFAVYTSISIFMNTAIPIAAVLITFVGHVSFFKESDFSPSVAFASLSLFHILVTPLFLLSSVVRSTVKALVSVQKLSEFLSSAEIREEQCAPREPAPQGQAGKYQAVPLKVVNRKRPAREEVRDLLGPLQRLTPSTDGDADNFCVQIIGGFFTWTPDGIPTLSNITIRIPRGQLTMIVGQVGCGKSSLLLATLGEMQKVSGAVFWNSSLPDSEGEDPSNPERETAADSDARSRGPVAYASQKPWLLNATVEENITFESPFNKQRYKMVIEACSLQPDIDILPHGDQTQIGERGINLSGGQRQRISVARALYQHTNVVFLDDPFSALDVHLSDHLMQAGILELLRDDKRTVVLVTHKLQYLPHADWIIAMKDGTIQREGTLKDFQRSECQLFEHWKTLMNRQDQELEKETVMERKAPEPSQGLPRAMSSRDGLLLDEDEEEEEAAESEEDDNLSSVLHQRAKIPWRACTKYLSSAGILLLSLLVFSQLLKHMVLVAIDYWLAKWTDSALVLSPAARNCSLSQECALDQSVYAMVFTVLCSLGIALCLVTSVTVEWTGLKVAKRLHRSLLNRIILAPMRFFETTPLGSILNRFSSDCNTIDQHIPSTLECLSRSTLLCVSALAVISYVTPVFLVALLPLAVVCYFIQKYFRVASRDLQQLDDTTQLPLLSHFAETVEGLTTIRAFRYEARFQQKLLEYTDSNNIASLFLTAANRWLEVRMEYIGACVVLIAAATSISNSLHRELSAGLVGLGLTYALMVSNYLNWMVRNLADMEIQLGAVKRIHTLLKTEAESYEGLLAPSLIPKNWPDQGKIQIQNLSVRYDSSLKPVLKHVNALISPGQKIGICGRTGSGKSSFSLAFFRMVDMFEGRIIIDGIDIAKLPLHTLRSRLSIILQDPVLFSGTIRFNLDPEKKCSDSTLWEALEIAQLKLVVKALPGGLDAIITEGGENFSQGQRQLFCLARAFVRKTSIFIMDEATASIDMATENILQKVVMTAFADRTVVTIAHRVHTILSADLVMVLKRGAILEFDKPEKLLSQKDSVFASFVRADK
Sequence of Sulfonylurea receptors; K-ATP channels (Rattus norvegicus) (Q63563 whole entry, looked up): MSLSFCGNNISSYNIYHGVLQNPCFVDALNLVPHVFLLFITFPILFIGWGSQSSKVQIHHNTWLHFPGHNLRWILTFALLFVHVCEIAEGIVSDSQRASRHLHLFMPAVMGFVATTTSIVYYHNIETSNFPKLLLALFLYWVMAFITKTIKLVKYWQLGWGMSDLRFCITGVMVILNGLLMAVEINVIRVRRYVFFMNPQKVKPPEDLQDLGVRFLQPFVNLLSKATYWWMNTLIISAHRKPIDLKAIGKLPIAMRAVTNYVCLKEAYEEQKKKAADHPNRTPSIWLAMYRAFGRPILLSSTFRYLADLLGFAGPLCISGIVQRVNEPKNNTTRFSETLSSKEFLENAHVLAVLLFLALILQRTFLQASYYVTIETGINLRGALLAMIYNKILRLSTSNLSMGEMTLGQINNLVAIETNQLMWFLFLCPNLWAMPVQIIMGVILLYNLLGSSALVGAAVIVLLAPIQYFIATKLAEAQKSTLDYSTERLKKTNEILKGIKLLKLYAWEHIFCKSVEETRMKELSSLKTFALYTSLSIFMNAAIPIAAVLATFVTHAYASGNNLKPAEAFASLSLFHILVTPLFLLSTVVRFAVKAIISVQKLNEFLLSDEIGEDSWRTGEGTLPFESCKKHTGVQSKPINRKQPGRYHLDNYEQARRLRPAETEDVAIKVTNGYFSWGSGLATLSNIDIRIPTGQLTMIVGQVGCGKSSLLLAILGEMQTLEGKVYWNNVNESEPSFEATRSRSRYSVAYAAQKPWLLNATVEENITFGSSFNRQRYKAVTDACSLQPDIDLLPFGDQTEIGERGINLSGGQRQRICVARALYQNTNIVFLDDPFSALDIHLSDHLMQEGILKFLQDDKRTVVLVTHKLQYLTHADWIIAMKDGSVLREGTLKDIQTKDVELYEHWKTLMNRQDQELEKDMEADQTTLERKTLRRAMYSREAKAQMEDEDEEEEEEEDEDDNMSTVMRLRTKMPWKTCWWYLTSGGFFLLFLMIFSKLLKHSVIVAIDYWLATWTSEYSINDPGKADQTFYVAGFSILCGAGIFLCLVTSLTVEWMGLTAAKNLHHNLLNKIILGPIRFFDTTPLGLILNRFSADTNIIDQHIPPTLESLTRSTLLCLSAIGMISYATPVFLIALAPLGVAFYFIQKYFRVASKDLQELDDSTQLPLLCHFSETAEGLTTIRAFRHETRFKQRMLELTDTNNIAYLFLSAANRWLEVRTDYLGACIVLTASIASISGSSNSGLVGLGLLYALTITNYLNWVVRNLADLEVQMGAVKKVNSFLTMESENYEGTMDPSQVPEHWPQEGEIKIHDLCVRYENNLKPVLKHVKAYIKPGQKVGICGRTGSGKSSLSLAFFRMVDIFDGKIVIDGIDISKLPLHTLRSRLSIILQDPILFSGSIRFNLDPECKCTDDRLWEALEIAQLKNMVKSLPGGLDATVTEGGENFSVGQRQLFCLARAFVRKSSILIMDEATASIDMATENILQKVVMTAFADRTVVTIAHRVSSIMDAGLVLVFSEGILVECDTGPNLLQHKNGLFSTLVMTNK
Sequence of Sulfonylurea receptors; K-ATP channels (Rattus norvegicus) (Q63664 whole entry, looked up): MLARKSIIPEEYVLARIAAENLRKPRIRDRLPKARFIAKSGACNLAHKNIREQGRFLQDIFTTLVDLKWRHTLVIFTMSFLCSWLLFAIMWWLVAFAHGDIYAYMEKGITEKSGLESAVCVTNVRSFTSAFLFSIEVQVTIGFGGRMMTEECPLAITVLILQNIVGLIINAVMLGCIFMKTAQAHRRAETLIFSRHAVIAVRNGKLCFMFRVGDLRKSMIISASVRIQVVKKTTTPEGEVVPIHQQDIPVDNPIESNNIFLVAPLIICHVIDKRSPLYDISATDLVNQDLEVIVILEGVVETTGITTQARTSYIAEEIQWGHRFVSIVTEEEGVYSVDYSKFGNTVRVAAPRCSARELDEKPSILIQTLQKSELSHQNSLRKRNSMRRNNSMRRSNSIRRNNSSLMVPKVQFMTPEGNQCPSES

[23] = molecular target: T2, GABA-A receptor; anion channel (Rattus norvegicus); assay: Cl- channel (GABA-gated) Eurofins-Cerep binding assay; format: protein-complex assay; set-up: ligand concentration 3 nM; settings: filed as antagonist, Compound concentration 10.0 uM
[24] = molecular target: Sodium-dependent serotonin transporter (Homo sapiens) (UniProt P31645); assay: 5-HT transporter (h) Eurofins-Cerep binding assay; set-up: ligand concentration 2 nM; settings: filed as antagonist, Compound concentration 10.0 uM

Row | SMILES | % Inhibition of Control Values (Mean n=2) [1] | % Inhibition of Control Specific Binding (Mean n=2) [2] | % Inhibition of Control Specific Binding (Mean n=2) [3] | % Inhibition of Control Specific Binding (Mean n=2) [4] | % Inhibition of Control Specific Binding (Mean n=2) [5] | % Inhibition of Control Specific Binding (Mean n=2) [6] | % Inhibition of Control Specific Binding (Mean n=2) [7] | % Inhibition of Control Specific Binding (Mean n=2) [8] | % Inhibition of Control Specific Binding (Mean n=2) [9] | % Inhibition of Control Specific Binding (Mean n=2) [10] | % Inhibition of Control Specific Binding (Mean n=2) [11] | inhibition at 60 min, 10 µM [12] | % Inhibition of Control Specific Binding (Mean n=2) [13] | % Inhibition of Control Specific Binding (Mean n=2) [14] | % Inhibition of Control Specific Binding (Mean n=2) [15] | % Inhibition of Control Specific Binding (Mean n=2) [16] | % Inhibition of Control Specific Binding (Mean n=2) [17] | % Inhibition of Control Specific Binding (Mean n=2) [18] | % Inhibition of Control Specific Binding (Mean n=2) [19] | % Inhibition of Control Specific Binding (Mean n=2) [20] | further results
1 | O=C(Nc1nc2ccccc2s1)c1cccc2c1CN(c1nc(C(=O)O)c(CCOc3ccc(-n4ncc5cncnc54)cc3)s1)CC2 [A-1107969] | -17% | -14.8% | 54% | -17.8% | -3.5% | 17.3% | -20.2% | 3.5% | 0.8% | -9.3% | -11% | 11.1% | -1.6% | -4.4% | 8.8% | 98.2% | 2.8% | -0.4% | -5.7% | -12.1% | % Inhibition of Control Specific Binding (Mean n=2) [21]: 62.2%; % Inhibition of Control Specific Binding (Mean n=2) [22]: 15.8%; % Inhibition of Control Specific Binding (Mean n=2) [23]: 11.2%; % Inhibition of Control Specific Binding (Mean n=2) [24]: -2.3%
2 | CN(C)CC#Cc1ccc(OCCCc2sc(N3CCc4cccc(C(=O)Nc5nc6ccccc6s5)c4C3)nc2C(=O)O)c(F)c1 [A-1155463] | 22.1% | 32.8% | 71.6% | -2.5% | 20.5% | 18.1% | -7% | 26.2% | 9.6% | 69.2% | -11.6% | 74.5% | 19.1% | 17.4% | 10.3% | 99.1% | 7.8% | 13.5% | 2% | -1.8% | % Inhibition of Control Specific Binding (Mean n=2) [21]: 94.9%; % Inhibition of Control Specific Binding (Mean n=2) [22]: 27.4%; % Inhibition of Control Specific Binding (Mean n=2) [23]: 9.9%; % Inhibition of Control Specific Binding (Mean n=2) [24]: 8.5%
